Experimental data from patent US20090298781A1, “COMPOUNDS FOR THE INHIBITION OF APOPTOSIS” (CONSEJO SUPERIOR DE, priority 2005, published 2009).

Tests used:
Type in all cases: cell-based
Saos-2 cell line = experiment: MTT assay, toxicity (cell viability), Saos-2
Experimental: (§1) The MTT assay measures cell proliferation as well as reduction in cell viability when metabolic events lead to apoptosis or necrosis. It can also be used to assess the rate of survival of a given cell line when it is incubated in the presence of xenobiotics. The reduction of tetrazolium salts is accepted as a reliable way to analyse cell proliferation. The yellow tetrazolium MTT (3-(4,5-dimethylthiazolyl-2)-2,5-diphenyltetrazolium bromide) is reduced by metabolically active cells and results in the intracellular formation of purple formazan that can be spectrophotometrically measured after solubilisation with DMSO.
(§2) The MTT assay was used in this invention to assess the toxicity of compounds at different concentrations. To analyse their potential impairment in cell viability, compounds were added to Saos-2 and U937 cell lines at different concentrations and incubated at different times. Results are expressed by percentage cell viability.

[1] = tested on: Caspase activity, U937 cell extracts; experiment: Caspase inhibition assay, U937 cell extracts; conditions: Homo sapiens, U-937, 5 μM
Experimental: The time-dependent inhibition of caspase induced by the compounds described in this invention was analysed. […] Caspase activity was assayed using Saos-2 or U937 cell extracts and Ac-DEVD-afc (N-acetyl-Asp-Glu-Val-Asp-afc(7-amino-4-trifluoromethyl coumarin)) as substrate (20 μM). Caspase activity was continuously monitored by the liberation of fluorescent afc using a Cytofluor 4000 fluorimeter (excitation 400 nm; emission 508 nm) for 1 hour. The effect of the compounds on the caspase activity was expressed as the percentage of inhibition in the fluorescence signal of treated cells vs. the non-treated cells (control).

U937 cell line = experiment: MTT assay, toxicity (cell viability), U937
Experimental: as §1, §2

Caspase activity, HeLa = experiment: Caspase inhibition assay, HeLa; conditions: Homo sapiens, 5 μM
Caspase activity, U2-OS = experiment: Caspase inhibition assay, U2-OS; conditions: Homo sapiens, U2OS, 5 μM

NCCCCC(NC(=O)CN(CCc1ccc(Cl)cc1Cl)C(=O)C1CC(=O)N(CCc2ccc(Cl)cc2Cl)CC(=O)N1CCC(c1ccccc1)c1ccccc1)C(N)=O (stereo not drawn) [IIa.2, 1-[2-(2,4-Dichlorophenyl)ethyl]-4-(3,3-diphenyl-propyl)-3,7-dioxo[1,4]diazepane-5-carboxylic acid [(5-amino-1-carbamoylpentylcarbamoyl)methyl]-[2-(2,4-dichlorophenyl)ethyl]amide]
% Cell viability (Saos-2 cell line; Saos-2, 24 h, 1 μM): 98%
% Cell viability (Saos-2 cell line; Saos-2, 24 h, 5 μM): 100%
% Cell viability (Saos-2 cell line; Saos-2, 24 h, 10 μM): 77%
% Cell viability (Saos-2 cell line; Saos-2, 24 h, 25 μM): 25%
% Cell viability (Saos-2 cell line; Saos-2, 24 h, 50 μM): 10%
% Cell viability (Saos-2 cell line; Saos-2, 48 h, 1 μM): 100%
% Cell viability (Saos-2 cell line; Saos-2, 48 h, 5 μM): 97%
% Cell viability (Saos-2 cell line; Saos-2, 48 h, 10 μM): 98%
% Cell viability (Saos-2 cell line; Saos-2, 48 h, 25 μM): 11%
inhibition at 5 µM ([1]; U937, 24 h): 23%
inhibition at 5 µM ([1]; U937, 48 h): 11%
inhibition at 5 µM ([1]; U937, 72 h): 5%

NC(=O)CN(CCc1ccccc1F)C(=O)C1CC(=O)N(CCc2ccc(Cl)cc2Cl)CC(=O)N1CCC(c1ccccc1)c1ccccc1 (stereo not drawn) [I.9, 1-[2-(2,4-Dichlorophenyl)ethyl]-4-(3,3-diphenylpropyl)-3,7-dioxo[1,4]diazepane-5-carboxylic acid carbamoylmethyl[2-(2-fluorophenyl)-ethyl]amide]
% Cell viability (Saos-2 cell line; Saos-2, 24 h, 1 μM): 100%
% Cell viability (Saos-2 cell line; Saos-2, 24 h, 5 μM): 96%
% Cell viability (Saos-2 cell line; Saos-2, 24 h, 10 μM): 82%
% Cell viability (Saos-2 cell line; Saos-2, 48 h, 1 μM): 97%
% Cell viability (Saos-2 cell line; Saos-2, 48 h, 5 μM): 76%
% Cell viability (Saos-2 cell line; Saos-2, 48 h, 10 μM): 66%
% Cell viability (U937 cell line; U937, 24 h, 1 μM): 100%
% Cell viability (U937 cell line; U937, 24 h, 5 μM): 98%
% Cell viability (U937 cell line; U937, 24 h, 10 μM): 88%
% Cell viability (U937 cell line; U937, 48 h, 1 μM): 93%
% Cell viability (U937 cell line; U937, 48 h, 5 μM): 69%
% Cell viability (U937 cell line; U937, 48 h, 10 μM): 59%
inhibition at 5 µM (Caspase activity, HeLa; 24 h): 0%
inhibition at 5 µM (Caspase activity, HeLa; 48 h): 0%
inhibition at 5 µM (Caspase activity, HeLa; 72 h): 41%
inhibition at 5 µM (Caspase activity, U2-OS; 24 h): 0%
inhibition at 5 µM (Caspase activity, U2-OS; 48 h): 34%
inhibition at 5 µM (Caspase activity, U2-OS; 72 h): 61%
inhibition at 5 µM ([1]; U937, 24 h): 3%
inhibition at 5 µM ([1]; U937, 48 h): 4%
inhibition at 5 µM ([1]; U937, 72 h): 63%

CC(=O)NCCNC(=O)CNC(=O)C1CC(=O)N(CCc2ccc(Cl)cc2Cl)CC(=O)N1CCC(c1ccccc1)c1ccccc1 (stereo not drawn) [I.3, 1-[2-(2,4-Dichlorophenyl)ethyl]-4-(3,3-diphenylpropyl)-3,7-dioxo[1,4]diazepane-5-carboxylic acid (2-acetylaminoethyl)carbamoylmethylamide]
% Cell viability (Saos-2 cell line; Saos-2, 24 h, 1 μM): 97%
% Cell viability (Saos-2 cell line; Saos-2, 24 h, 5 μM): 93%
% Cell viability (Saos-2 cell line; Saos-2, 24 h, 10 μM): 100%
% Cell viability (Saos-2 cell line; Saos-2, 48 h, 1 μM): 100%
% Cell viability (Saos-2 cell line; Saos-2, 48 h, 5 μM): 100%
% Cell viability (Saos-2 cell line; Saos-2, 48 h, 10 μM): 100%
% Cell viability (U937 cell line; U937, 24 h, 1 μM): 100%
% Cell viability (U937 cell line; U937, 24 h, 5 μM): 95%
% Cell viability (U937 cell line; U937, 24 h, 10 μM): 95%
% Cell viability (U937 cell line; U937, 48 h, 1 μM): 100%
% Cell viability (U937 cell line; U937, 48 h, 5 μM): 100%
% Cell viability (U937 cell line; U937, 48 h, 10 μM): 98%
inhibition at 5 µM (Caspase activity, HeLa; 24 h): 9%
inhibition at 5 µM (Caspase activity, HeLa; 48 h): 21%
inhibition at 5 µM (Caspase activity, HeLa; 72 h): 29%
inhibition at 5 µM (Caspase activity, U2-OS; 24 h): 1%
inhibition at 5 µM (Caspase activity, U2-OS; 48 h): 29%
inhibition at 5 µM (Caspase activity, U2-OS; 72 h): 22%
inhibition at 5 µM ([1]; U937, 24 h): 12%
inhibition at 5 µM ([1]; U937, 48 h): 16%
inhibition at 5 µM ([1]; U937, 72 h): 1%

NC(=O)CN(CCc1ccc(Cl)cc1)C(=O)C1CC(=O)N(CCc2ccc(Cl)cc2Cl)CC(=O)N1CCC(c1ccccc1)c1ccccc1 (stereo not drawn) [I.8, 1-[2-(2,4-Dichlorophenyl)ethyl]-4-(3,3-diphenylpropyl)-3,7-dioxo[1,4]diazepane-5-carboxylic acid carbamoylmethyl[2-(4-chlorophenyl)ethyl]amide]
% Cell viability (Saos-2 cell line; Saos-2, 24 h, 1 μM): 100%
% Cell viability (Saos-2 cell line; Saos-2, 24 h, 5 μM): 100%
% Cell viability (Saos-2 cell line; Saos-2, 24 h, 10 μM): 99%
% Cell viability (Saos-2 cell line; Saos-2, 48 h, 1 μM): 97%
% Cell viability (Saos-2 cell line; Saos-2, 48 h, 5 μM): 100%
% Cell viability (Saos-2 cell line; Saos-2, 48 h, 10 μM): 100%
% Cell viability (U937 cell line; U937, 24 h, 1 μM): 100%
% Cell viability (U937 cell line; U937, 24 h, 5 μM): 98%
% Cell viability (U937 cell line; U937, 24 h, 10 μM): 99%
% Cell viability (U937 cell line; U937, 48 h, 1 μM): 100%
% Cell viability (U937 cell line; U937, 48 h, 5 μM): 98%
% Cell viability (U937 cell line; U937, 48 h, 10 μM): 99%
inhibition at 5 µM (Caspase activity, HeLa; 24 h): 5%
inhibition at 5 µM (Caspase activity, HeLa; 48 h): 3%
inhibition at 5 µM (Caspase activity, HeLa; 72 h): 6%
inhibition at 5 µM (Caspase activity, U2-OS; 24 h): 0%
inhibition at 5 µM (Caspase activity, U2-OS; 48 h): 16%
inhibition at 5 µM (Caspase activity, U2-OS; 72 h): 24%
inhibition at 5 µM ([1]; U937, 24 h): 5%
inhibition at 5 µM ([1]; U937, 48 h): 15%
inhibition at 5 µM ([1]; U937, 72 h): 23%
